Data from ChEMBL document CHEMBL1250475, “Inhibition of monoamine oxidase by indole and benzofuran derivatives” (Eur J Med Chem, 2010).

Columns and labels:
[1] = target: T1, Amine oxidase [flavin-containing] A (Homo sapiens, UniProt P21397); assay: Inhibition of human recombinant MAOA expressed in baculovirus infected BTI insect cells after 20 mins by spectrofluorimetric analysis
T1 sequence (P21397 whole entry): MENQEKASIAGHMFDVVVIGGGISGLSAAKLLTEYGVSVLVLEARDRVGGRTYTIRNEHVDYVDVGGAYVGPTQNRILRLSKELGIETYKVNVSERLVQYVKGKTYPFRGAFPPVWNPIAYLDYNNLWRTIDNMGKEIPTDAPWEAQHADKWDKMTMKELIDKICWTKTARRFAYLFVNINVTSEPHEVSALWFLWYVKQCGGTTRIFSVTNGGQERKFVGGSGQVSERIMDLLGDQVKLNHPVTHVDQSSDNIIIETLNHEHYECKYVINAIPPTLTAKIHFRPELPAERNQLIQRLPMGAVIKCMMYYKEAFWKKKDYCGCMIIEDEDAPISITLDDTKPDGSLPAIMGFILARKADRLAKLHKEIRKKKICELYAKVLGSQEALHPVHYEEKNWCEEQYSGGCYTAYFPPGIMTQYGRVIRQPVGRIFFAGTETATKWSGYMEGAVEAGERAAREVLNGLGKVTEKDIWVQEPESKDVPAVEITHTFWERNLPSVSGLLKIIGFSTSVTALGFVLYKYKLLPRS

[2] = target: T2, Amine oxidase [flavin-containing] B (Homo sapiens, UniProt P27338); assay: Inhibition of human recombinant MAOB expressed in baculovirus infected BTI insect cells after 20 mins by spectrofluorimetric analysis
T2 sequence (P27338 whole entry): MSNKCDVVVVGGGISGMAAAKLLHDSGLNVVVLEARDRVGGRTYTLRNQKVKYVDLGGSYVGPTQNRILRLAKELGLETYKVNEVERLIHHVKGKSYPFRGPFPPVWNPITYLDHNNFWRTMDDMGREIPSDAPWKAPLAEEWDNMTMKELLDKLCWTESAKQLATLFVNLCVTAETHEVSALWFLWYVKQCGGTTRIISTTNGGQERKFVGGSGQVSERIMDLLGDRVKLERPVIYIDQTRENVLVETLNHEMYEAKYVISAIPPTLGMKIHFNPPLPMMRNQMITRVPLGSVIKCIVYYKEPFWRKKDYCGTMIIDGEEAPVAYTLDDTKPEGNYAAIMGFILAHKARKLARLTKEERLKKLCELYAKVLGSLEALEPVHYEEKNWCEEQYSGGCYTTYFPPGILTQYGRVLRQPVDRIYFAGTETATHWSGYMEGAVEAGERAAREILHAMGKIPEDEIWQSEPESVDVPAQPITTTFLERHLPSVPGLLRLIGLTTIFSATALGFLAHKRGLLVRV

Homo sapiens = species on record: Homo sapiens; assay: Selectivity ratio of Ki for human recombinant MAOA to Ki for human recombinant MAOB
[3] = target: T2, Amine oxidase [flavin-containing] B; assay: Reversible inhibition of human recombinant MAOB expressed in baculovirus infected BTI insect cells at 2 times IC50 concentration preincubated for 60 mins measured after 15 mins; details: 0.25 h
[4] = target: T2, Amine oxidase [flavin-containing] B; assay: Competitive inhibition of human recombinant MAOB expressed in baculovirus infected BTI insect cells at 0.015 to 0.06 uM by Lineweaver-Burke plot analysis

Row | Structure (SMILES) | IC50 [1] [µM] | Ki [1] [µM] | IC50 [2] [µM] | Ki [2] [nM] | Selectivity ratio (Homo sapiens) | inhibition (INH) [3] | inhibition (INH) [4]
1 | Cc1cc2cc(NC(=O)c3ccc(Cl)c(Cl)c3)ccc2[nH]1 | 9.79 | 2.58 | 0.06 | 30 | 99 | Active | Active
2 | Cc1cc2cc(NC(=O)C3CCCCC3)ccc2[nH]1 | 69.4 | 18.3 | 6.96 | 3000 | 6 |  | 
3 | Cc1cc2cc(NC(=O)/C=C/c3cccc(Cl)c3)ccc2[nH]1 | 7.67 | 2.02 | 9.83 | 4230 | 0.5 |  | 
4 | O=C1Cc2cc(OC(=O)c3cccc(Cl)c3)ccc2O1 | 7.66 | 2.02 | 0.99 | 430 | 5 | Active | 
5 | Cc1cc2cc(NC(=O)c3cccc(S(=O)(=O)O)c3)ccc2[nH]1 | 259 | 68.3 | 176 | 75700 | 0.9 |  | 
6 | Cc1cc2cc(NC(=O)c3cccc(Cl)c3)ccc2[nH]1 | 31 | 8.18 | 0.76 | 330 | 25 |  | 
7 | Cc1cc2cc(NC(=O)c3ccccc3)ccc2[nH]1 | 150 | 39.5 | 3.84 | 1650 | 24 |  | 
8 | O=C(/C=C/c1cccc(Cl)c1)Oc1ccc2c(c1)CC(=O)O2 | 3.9 | 1.03 | 0.44 | 190 | 5 |  | 
9 | Cc1cc2cc(NC(=O)/C=C/c3ccccc3)ccc2[nH]1 | 663 | 175 | 18.8 | 8010 | 22 |  | 
10 | O=C(/C=C/c1ccccc1)Oc1ccc2c(c1)CC(=O)O2 | 12.5 | 3.29 | 1.2 | 520 | 6 |  | 
11 | Cc1cc2cc(NC(=O)c3ccc[n+](C)c3)ccc2[nH]1 | 20.8 | 5.47 |  |  |  |  | 
12 | O=C1Cc2cc(OC(=O)c3ccccc3)ccc2O1 | 11.6 | 3.05 | 8.89 | 3830 | 0.8 |  | 
